# Results published in ChEMBL document CHEMBL3596110, “Design of glycosyltransferase inhibitors targeting human O-GlcNAc transferase (OGT)” (Medchemcomm, 2014).
# Calls of active or inactive are those of the source. No cut-off for these calls is given here.
# Target: T1, UDP-N-acetylglucosamine--peptide N-acetylglucosaminyltransferase 110 kDa subunit (Homo sapiens) (UniProt O15294)
# T1 sequence (whole entry): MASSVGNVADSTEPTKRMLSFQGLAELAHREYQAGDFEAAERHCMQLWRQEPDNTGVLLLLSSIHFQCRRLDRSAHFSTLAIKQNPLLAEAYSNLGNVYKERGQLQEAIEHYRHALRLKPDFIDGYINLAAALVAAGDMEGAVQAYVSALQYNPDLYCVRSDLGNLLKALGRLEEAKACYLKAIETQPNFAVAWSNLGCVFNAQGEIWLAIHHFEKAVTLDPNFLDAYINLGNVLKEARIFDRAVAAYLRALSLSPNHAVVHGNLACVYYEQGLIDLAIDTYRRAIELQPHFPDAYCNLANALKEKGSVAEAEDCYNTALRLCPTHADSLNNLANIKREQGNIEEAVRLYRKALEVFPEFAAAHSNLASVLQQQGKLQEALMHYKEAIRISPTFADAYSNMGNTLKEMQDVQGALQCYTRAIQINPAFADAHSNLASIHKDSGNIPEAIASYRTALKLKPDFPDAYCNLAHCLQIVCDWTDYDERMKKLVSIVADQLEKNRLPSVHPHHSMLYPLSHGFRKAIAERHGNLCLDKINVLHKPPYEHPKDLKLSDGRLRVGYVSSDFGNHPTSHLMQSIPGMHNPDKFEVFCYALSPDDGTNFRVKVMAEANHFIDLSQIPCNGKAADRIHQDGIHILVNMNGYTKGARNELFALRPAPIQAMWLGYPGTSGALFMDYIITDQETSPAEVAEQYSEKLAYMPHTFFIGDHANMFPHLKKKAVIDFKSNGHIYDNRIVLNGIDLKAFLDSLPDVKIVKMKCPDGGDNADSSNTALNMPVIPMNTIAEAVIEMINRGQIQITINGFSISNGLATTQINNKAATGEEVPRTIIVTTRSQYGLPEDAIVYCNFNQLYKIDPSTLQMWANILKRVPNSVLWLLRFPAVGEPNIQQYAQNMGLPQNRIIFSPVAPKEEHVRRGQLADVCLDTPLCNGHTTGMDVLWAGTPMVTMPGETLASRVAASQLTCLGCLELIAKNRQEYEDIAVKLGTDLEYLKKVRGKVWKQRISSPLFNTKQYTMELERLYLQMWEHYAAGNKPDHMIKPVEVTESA
# Experiment: Inhibition of OGT in human MCF10A cells assessed as decrease in intracellular O-GlcNAcylated protein level up to 500 uM after 24 to 48 hrs by immunoblot analysis
# Assay type: cell-based
# Settings: MCF-10A
row,SMILES,inhibition
1,O=C(N[C@@H]1O[C@H](CO)[C@@H](O)[C@H](O)[C@H]1O)c1cccc(Cc2cn(C[C@H]3O[C@@H](n4ccc(=O)[nH]c4=O)[C@H](O)[C@@H]3O)nn2)n1,inactive

# Target: T1, UDP-N-acetylglucosamine--peptide N-acetylglucosaminyltransferase 110 kDa subunit (Homo sapiens)
# Experiment: Inhibition of human OGT using [3H]-UDP-GlcNAc as donor and recombinant nup2 as acceptor at 50 uM by liquid scintillation counting analysis
# Settings: not given
row,SMILES,inhibition
1,O=c1ccn([C@@H]2O[C@H](Cn3cc(-c4cccc(Br)n4)nn3)[C@@H](O)[C@H]2O)c(=O)[nH]1,15.5%
2,O=C(N[C@@H]1O[C@H](CO)[C@@H](O)[C@H](O)[C@H]1O)c1cccc(Cc2cn(C[C@H]3O[C@@H](n4ccc(=O)[nH]c4=O)[C@H](O)[C@@H]3O)nn2)n1,18%
3,O=c1ccn([C@@H]2O[C@H](Cn3cc(-c4cccc(-c5cn([C@@H]6O[C@H](CO)[C@@H](O)[C@H](O)[C@H]6O)nn5)n4)nn3)[C@@H](O)[C@H]2O)c(=O)[nH]1,13.3%
4,O=C(NC[C@H]1O[C@@H](n2ccc(=O)[nH]c2=O)[C@H](O)[C@@H]1O)c1cccc(Br)n1,7.6%

# Results, then the molecule that gave them:
row,inhibition,SMILES
1,9.7%,CC(=O)N[C@@H]1[C@@H](O)[C@H](O)[C@@H](CO)O[C@H]1n1cc(-c2cccc(C(=O)NC[C@H]3O[C@@H](n4ccc(=O)[nH]c4=O)[C@H](O)[C@@H]3O)n2)nn1
2,6.7%,CC(=O)N[C@@H]1[C@@H](O)[C@H](O)[C@@H](CO)O[C@H]1n1cc(-c2cccc(-c3cn(C[C@H]4O[C@@H](n5ccc(=O)[nH]c5=O)[C@H](O)[C@@H]4O)nn3)n2)nn1
3,3%,CC(=O)N[C@@H]1[C@@H](O)[C@H](O)[C@@H](CO)O[C@H]1NC(=O)c1cccc(Cc2cn(C[C@H]3O[C@@H](n4ccc(=O)[nH]c4=O)[C@H](O)[C@@H]3O)nn2)n1
4,4.2%,O=C(NC[C@H]1O[C@@H](n2ccc(=O)[nH]c2=O)[C@H](O)[C@@H]1O)c1cccc(-c2cn([C@@H]3O[C@H](CO)[C@@H](O)[C@H](O)[C@H]3O)nn2)n1

# Target: T2, UDP-N-acetylglucosamine--peptide N-acetylglucosaminyltransferase 110 kDa subunit (Homo sapiens, UniProt O15294)
# T2 sequence (O15294 whole entry): T1 sequence (whole entry)
# Experiment: Inhibition of human OGT using [3H]-UDP-GlcNAc as donor and recombinant nup2 as acceptor by Dixon plot analysis
# Settings: not given
row,SMILES,Ki
1,O=C(N[C@@H]1O[C@H](CO)[C@@H](O)[C@H](O)[C@H]1O)c1cccc(Cc2cn(C[C@H]3O[C@@H](n4ccc(=O)[nH]c4=O)[C@H](O)[C@@H]3O)nn2)n1,420 µM
2,CC(=O)N[C@@H]1[C@@H](O)[C@H](O)[C@@H](CO)S[C@@H]1OP(=O)(O)OP(=O)(O)OC[C@H]1O[C@@H](n2ccc(=O)[nH]c2=O)[C@H](O)[C@@H]1O,8 µM
3,CC(=O)N[C@@H]1[C@@H](O)[C@H](O)[C@@H](CO)O[C@@H]1SP(=O)(O)OP(=O)(O)OC[C@H]1O[C@@H](n2ccc(=O)[nH]c2=O)[C@H](O)[C@@H]1O,93 µM

# Target: T2, UDP-N-acetylglucosamine--peptide N-acetylglucosaminyltransferase 110 kDa subunit
# Experiment: Inhibition of human OGT using [3H]-UDP-GlcNAc as donor and recombinant nup2 as acceptor by liquid scintillation counting analysis
# Settings: not given
row,IC50,SMILES
1,710 µM,O=c1ccn([C@@H]2O[C@H](Cn3cc(-c4cccc(Br)n4)nn3)[C@@H](O)[C@H]2O)c(=O)[nH]1
2,10 µM,O=C(Oc1ccccc1)n1c(=O)oc2ccc(Cl)cc21
3,1600 µM,O=c1ccn([C@@H]2O[C@H](Cn3cc(-c4cccc(-c5cn([C@@H]6O[C@H](CO)[C@@H](O)[C@H](O)[C@H]6O)nn5)n4)nn3)[C@@H](O)[C@H]2O)c(=O)[nH]1

row,SMILES,IC50
1,O=C(N[C@@H]1O[C@H](CO)[C@@H](O)[C@H](O)[C@H]1O)c1cccc(Cc2cn(C[C@H]3O[C@@H](n4ccc(=O)[nH]c4=O)[C@H](O)[C@@H]3O)nn2)n1,340 µM

# Test system: not listed separately
# Experiment: Permeability across POPC liposomes by in-out method
# Assay type: ADME
# Settings: not given
row,SMILES,permeability
1,O=C(N[C@@H]1O[C@H](CO)[C@@H](O)[C@H](O)[C@H]1O)c1cccc(Cc2cn(C[C@H]3O[C@@H](n4ccc(=O)[nH]c4=O)[C@H](O)[C@@H]3O)nn2)n1,impermeable
2,O=C(NC[C@H]1O[C@@H](n2ccc(=O)[nH]c2=O)[C@H](O)[C@@H]1O)c1cccc(CO[C@@H]2O[C@H](CO)[C@@H](O)[C@H](O)[C@H]2O)n1,impermeable

# Test system: not listed separately
# Experiment: Permeability across POPC liposomes by out-in method
# Assay type: ADME
# Settings: not given
row,SMILES,permeability
1,O=C(N[C@@H]1O[C@H](CO)[C@@H](O)[C@H](O)[C@H]1O)c1cccc(Cc2cn(C[C@H]3O[C@@H](n4ccc(=O)[nH]c4=O)[C@H](O)[C@@H]3O)nn2)n1,impermeable
2,O=C(NC[C@H]1O[C@@H](n2ccc(=O)[nH]c2=O)[C@H](O)[C@@H]1O)c1cccc(CO[C@@H]2O[C@H](CO)[C@@H](O)[C@H](O)[C@H]2O)n1,impermeable

# Target: T1, UDP-N-acetylglucosamine--peptide N-acetylglucosaminyltransferase 110 kDa subunit (Homo sapiens)
# Experiment: Inhibition of OGT in human HeLa cells assessed as decrease in intracellular O-GlcNAcylated protein level up to 500 uM after 24 to 48 hrs by immunoblot analysis
# Assay type: cell-based
# Settings: not given
row,SMILES,inhibition
1,O=C(N[C@@H]1O[C@H](CO)[C@@H](O)[C@H](O)[C@H]1O)c1cccc(Cc2cn(C[C@H]3O[C@@H](n4ccc(=O)[nH]c4=O)[C@H](O)[C@@H]3O)nn2)n1,inactive

# Target: T1, UDP-N-acetylglucosamine--peptide N-acetylglucosaminyltransferase 110 kDa subunit (Homo sapiens)
# Experiment: Inhibition of OGT in human MCF7 cells assessed as decrease in intracellular O-GlcNAcylated protein level up to 500 uM after 24 to 48 hrs by immunoblot analysis
# Assay type: cell-based
# Settings: not given
row,SMILES,inhibition
1,O=C(N[C@@H]1O[C@H](CO)[C@@H](O)[C@H](O)[C@H]1O)c1cccc(Cc2cn(C[C@H]3O[C@@H](n4ccc(=O)[nH]c4=O)[C@H](O)[C@@H]3O)nn2)n1,inactive
2,O=c1ccn([C@@H]2O[C@H](Cn3cc(-c4cccc(-c5cn([C@@H]6O[C@H](CO)[C@@H](O)[C@H](O)[C@H]6O)nn5)n4)nn3)[C@@H](O)[C@H]2O)c(=O)[nH]1,inactive
3,O=C(NC[C@H]1O[C@@H](n2ccc(=O)[nH]c2=O)[C@H](O)[C@@H]1O)c1cccc(Br)n1,inactive

# Continued, values first:
row,inhibition,SMILES
1,inactive,CC(=O)N[C@@H]1[C@@H](O)[C@H](O)[C@@H](CO)O[C@H]1n1cc(-c2cccc(C(=O)NC[C@H]3O[C@@H](n4ccc(=O)[nH]c4=O)[C@H](O)[C@@H]3O)n2)nn1
2,inactive,CC(=O)N[C@@H]1[C@@H](O)[C@H](O)[C@@H](CO)O[C@H]1n1cc(-c2cccc(-c3cn(C[C@H]4O[C@@H](n5ccc(=O)[nH]c5=O)[C@H](O)[C@@H]4O)nn3)n2)nn1
3,inactive,CC(=O)N[C@@H]1[C@@H](O)[C@H](O)[C@@H](CO)O[C@H]1NC(=O)c1cccc(Cc2cn(C[C@H]3O[C@@H](n4ccc(=O)[nH]c4=O)[C@H](O)[C@@H]3O)nn2)n1
4,inactive,O=C(NC[C@H]1O[C@@H](n2ccc(=O)[nH]c2=O)[C@H](O)[C@@H]1O)c1cccc(-c2cn([C@@H]3O[C@H](CO)[C@@H](O)[C@H](O)[C@H]3O)nn2)n1
